Assay results published in patent US20240350597A1, “PROTEASE INHIBITORS” (University College Dublin, priority 2023, published 2024).

How the values were obtained:
mammalian trypsin = test: Protease inhibition assay, trypsin; assay type: biochemical; conditions: 10 min preincubation, A1AT compared with B3-TMP
Procedure: (§1) Proteases were incubated with a 1:5 molar excess of serpin and residual activity was determined by cleavage of fluorescent substrates. All assays were carried out at room temperature in 96-well plates in a total volume of 100 μL. Residual proteolytic activity was measured using a SpectraMax M3 Microplate Reader (Molecular Devices, Inc), using the appropriate buffer and synthetic fluorogenic peptide substrate: Cathepsin L, Z-FR-AMC (10 μM), 50 mM Na-Acetate, 100 mM NaCl, 1 mM EDTA, pH 5.5; Chymotrypsin, Z-AAPF-AMC (5 μM), PBS, 1 mg/ml BSA; Elastase, Met-O-Suc-AAPV-AMC (10 μM), 50 mM Tris, 120 mM NaCl, pH 8.0, 1 mg/ml BSA; Furin, Boc-RVRR-AMC (50 μM) 20 mM Tris, 1 mM CaCl2), 0.5% Brij-35, pH 9; TMPRSS2, Boc-QAR-AMC (80 μM), PBS; Trypsin, Z-FR-AMC (10 μM), 50 mM Tris, 0.2 mM DTT, 1 mg/ml BSA. The excitation and emission wavelengths used were 380 nm and 460 nm respectively. All assays were performed in triplicate.
(§2) As an indication of target protease selectivity, both serpins were tested with mammalian trypsin, chymotrypsin and elastase, in addition to TMPRSS2. A short preincubation time of 10 minutes prior to addition of fluorogenic substrate was used and residual activity determined.

TMPRSS2 [1] = target: T1, TMPRSS2 (Homo sapiens, UniProt O15393); test: Kinetic analysis of TMPRSS2 inhibition under pseudo first-order conditions; assay type: biochemical; conditions: room temperature, TMPRSS2 0.1 μM
T1 construct: purchased Cusabio Technology
Procedure: For kinetic analysis of TMPRSS2 inhibition, second order inhibition rate constants were determined under pseudo first-order conditions using a range of serpin concentrations, and with TMPRSS2 buffer and substrate detailed above. Reactions were performed at room temperature and residual activity was determined at intervals over a 10 min incubation with a molar excess of serpin over protease. Concentration ranges were 0.12 to 0.44 μM for B3-TMP and 1.0 to 4 μM for A1AT. The apparent first order rate constant kobs for each concentration was calculated from the slope of the natural log of residual activity over time (−kobs). These values were plotted against inhibitor concentration and linear regression analysis of this plot gave the second order inhibition rate constant k2, with standard error determined.

[2] = tested on: SARS-CoV-2 Spike pseudoparticles; assay type: cell-based; conditions: 12.5 μM, A549-ACE2-TMPRSS2 cells
TMPRSS2 [3] = target: T1, TMPRSS2; assay type: biochemical; conditions: 5:1 serpin:protease ratio, 10 min incubation, substrate Boc-QAR-AMC
chymotrypsin = test: Protease inhibition assay, chymotrypsin; assay type: biochemical; conditions: 10 min preincubation, A1AT compared with B3-TMP
Procedure: as §1, §2

pancreatic elastase = test: Protease inhibition assay, elastase; assay type: biochemical; conditions: 10 min preincubation, A1AT compared with B3-TMP
Procedure: as §1, §2

T1 sequence (O15393 whole entry): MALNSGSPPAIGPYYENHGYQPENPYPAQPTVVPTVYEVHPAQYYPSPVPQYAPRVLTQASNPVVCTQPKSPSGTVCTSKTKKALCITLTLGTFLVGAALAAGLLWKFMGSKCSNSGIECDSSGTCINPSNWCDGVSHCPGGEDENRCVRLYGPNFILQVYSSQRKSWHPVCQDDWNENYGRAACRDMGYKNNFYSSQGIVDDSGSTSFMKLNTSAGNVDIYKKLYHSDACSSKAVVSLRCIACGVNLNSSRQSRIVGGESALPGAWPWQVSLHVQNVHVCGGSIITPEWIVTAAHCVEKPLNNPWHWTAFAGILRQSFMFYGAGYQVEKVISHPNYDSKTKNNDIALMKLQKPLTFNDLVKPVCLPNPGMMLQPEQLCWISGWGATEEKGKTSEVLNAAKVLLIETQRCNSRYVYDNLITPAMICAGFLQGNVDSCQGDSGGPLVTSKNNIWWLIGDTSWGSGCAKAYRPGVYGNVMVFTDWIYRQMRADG

alpha-1-antitrypsin [A1AT]
trypsin inhibition (in words) (mammalian trypsin): more effective inhibitor | second order inhibition rate constant k2 of TMPRSS2 inhibition (TMPRSS2 [1]): (4.8±0.55)×10^2 M^−1 s^−1 | inhibition of pseudoparticle entry [2]: 40% | inhibition of TMPRSS2 (TMPRSS2 [3]): 15% | chymotrypsin inhibition (in words) (chymotrypsin): more effective inhibitor | pancreatic elastase inhibition (in words) (pancreatic elastase): more effective inhibitor
